Measurements reported in US10294234B2, “HIV inhibitor compounds” (priority 2017, dated 2019).
pEC50: −log10 of the molar value.

Columns and labels:
[1] = tested on: HIV-1 (IIIB) in MT-4 cells; experiment: MT-4 HIV assay; format: cell-based; settings: Human immunodeficiency virus 1, MT4, 120 h; HIV-1 (IIIB), MT-4 cells, 5 days, Cell Titer Glo; read-out: EC50
Procedure, shortened: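 Antiviral activity was read by Cell Titer Glo after a 5-day, 37 °C culture of MT-4 cells pre-infected with a 1:250 dilution of HIV-1 (IIIB). Compounds were tested as threefold dilution series in complete RPMI. Controls were no drug, mock infection and 5 uM AZT.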

[2] = microsomes
Procedure, shortened: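 Each compound (1 uM) is incubated in duplicate with 0.5 mg/mL liver microsomal protein from dog, rat or human plus NADPH-regenerating system. Samples taken at 2, 12, 25, 45 and 65 minutes are deproteinised and quantified by LC/MS/MS. Half-life gives Clint.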

Row | Compound | pEC50 [1] | Human Pred Cl. [2] [L/H/kg] | Rat. Pred. Cl. [2] [L/H/kg] | Dog. Pred. Cl. ([2]; dog) [L/H/kg]
1 | COC(=O)N[C@H](C(=O)NN(Cc1c(F)cc(-c2ccc(F)cn2)cc1F)C[C@H](O)[C@H](Cc1ccc(C#Cc2ccc(N3CC4CCC(C3)N4C3COC3)nc2)cc1)NC(=O)[C@@H](NC(=O)OC)C(C)(C)C(F)(F)F)C(C)(C)C [Example 105, Methyl ((5S,8S,9S,14S)-11-(2,6-difluoro-4-(5-fluoropyridin-2-yl)benzyl)-9-hydroxy-15,15-dimethyl-8-(4-((6-(8-(oxetan-3-yl)-3,8-diazabicyclo [3.2.1]octan-3-yl)pyridin-3-yl)ethynyl)benzyl)-3,6,13-trioxo-5-(1,1,1-trifluoro-2-methylpropan-2-yl)-2-oxa-4,7,11,12-tetraazahexadecan-14-yl)carbamate] | 8.50 | 0.39 |  | 
2 | COC(=O)N[C@H](C(=O)N[C@@H](Cc1ccc(C#Cc2ccc(N3CC4CCC(C3)N4C3COC3)nc2)cc1)[C@@H](O)CN(Cc1c(F)cc(-c2cc(OC3COC3)ccn2)cc1F)NC(=O)[C@@H](NC(=O)OC)C(C)(C)C(F)(F)F)C(C)(C)C(F)(F)F [Example 127, Methyl ((5S,8S,9S,14S)-11-(2,6-difluoro-4-(4-(oxetan-3-yloxy)pyridin-2-yl)benzyl)-16,16,16-trifluoro-9-hydroxy-15,15-dimethyl-8-(4-((6-(8-(oxetan-3-yl)-3,8-diazabicyclo[3.2.1]octan-3-yl)pyridin-3-yl)ethynyl)benzyl)-3,6,13-trioxo-5-(1,1,1-trifluoro-2-methylpropan-2-yl)-2-oxa-4,7,11,12-tetraazahexadecan-14-yl)carbamate] | 8.38 | 0.54 | 1.3 | 
3 | COC(=O)N[C@H](C(=O)N[C@@H](Cc1ccc(C#Cc2cnc(N3CC4CCC(C3)N4C3COC3)cn2)cc1)[C@@H](O)CN(Cc1c(F)cc(-c2ccn(C(F)F)n2)cc1F)NC(=O)[C@@H](NC(=O)OC)C(C)(C)C(F)(F)F)C(C)(C)C(F)(F)F [Example 50, Methyl ((5S,8S,9S,14S)-11-(4-(1-(difluoromethyl)-1H-pyrazol-3-yl)-2,6-difluorobenzyl)-16,16,16-trifluoro-9-hydroxy-15,15-dimethyl-8-(4-((5-(8-(oxetan-3-yl)-3,8-diazabicyclo[3.2.1]octan-3-yl)pyrazin-2-yl)ethynyl)benzyl)-3,6,13-trioxo-5-(1,1,1-trifluoro-2-methylpropan-2-yl)-2-oxa-4,7,11,12-tetraazahexadecan-14-yl)carbamate] | 8.37 | <0.11 | <0.18 | 
4 | COC(=O)N[C@H](C(=O)N[C@@H](Cc1ccc(C#Cc2cnc(N3CC4CCC(C3)N4C3COC3)nc2)cc1)[C@@H](O)CN(Cc1c(F)cc(-c2ccn(C(F)F)n2)cc1F)NC(=O)[C@@H](NC(=O)OC)C(C)(C)C)C(C)(C)C [Example 121, Methyl ((5S,8S,9S,14S)-5-(tert-butyl)-11-(4-(1-(difluoromethyl)-1H-pyrazol-3-yl)-2,6-difluorobenzyl)-9-hydroxy-15,15-dimethyl-8-(4-((2-(8-(oxetan-3-yl)-3,8-diazabicyclo[3.2.1]octan-3-yl)pyrimidin-5-yl)ethynyl)benzyl)-3,6,13-trioxo-2-oxa-4,7,11,12-tetraazahexadecan-14-yl)carbamate] | 8.48 | <0.11 | <0.18 | 
5 | COC(=O)N[C@H](C(=O)N[C@@H](Cc1ccc(C#Cc2ccc(N3CC4COCC(C3)N4)nc2)cc1)[C@@H](O)CN(Cc1c(F)cc(-c2ccn(C(F)F)n2)cc1F)NC(=O)[C@@H](NC(=O)OC)C(C)(C)C(F)(F)F)C(C)(C)C(F)(F)F [Example 26, Methyl ((5S,8S,9S,14S)-8-(4-((6-(3-oxa-7,9-diazabicyclo[3.3.1]nonan-7-yl)pyridin-3-yl)ethynyl)benzyl)-11-(4-(1-(difluoromethyl)-1H-pyrazol-3-yl)-2,6-difluorobenzyl)-16,16,16-trifluoro-9-hydroxy-15,15-dimethyl-3,6,13-trioxo-5-(1,1,1-trifluoro-2-methylpropan-2-yl)-2-oxa-4,7,11,12-tetraazahexadecan-14-yl)carbamate] | 8.37 | <0.11 | 1.6 | 
6 | COC(=O)N[C@H](C(=O)N[C@@H](Cc1ccc(C#Cc2ccc(N3CC4COCC(C3)N4C)nc2)cc1)[C@@H](O)CN(Cc1c(F)cc(-c2ccn(C3CC3)n2)cc1F)NC(=O)[C@@H](NC(=O)OC)C(C)(C)C(F)(F)F)C(C)(C)C(F)(F)F [Example 35] | 8.45 | <0.11 | 2.1 | 1.74
7 | CCN1C2CCC1CN(c1ccc(C#Cc3ccc(C[C@H](NC(=O)[C@@H](NC(=O)OC)C(C)(C)C(F)(F)F)[C@@H](O)CN(Cc4c(F)cc(-c5cnn(C(F)F)c5)cc4F)NC(=O)[C@@H](NC(=O)OC)C(C)(C)C(F)(F)F)cc3)cn1)C2 [Example 167, Methyl ((5S,8S,9S,14S)-11-(4-(1-(difluoromethyl)-1H-pyrazol-4-yl)-2,6-difluorobenzyl)-8-(4-((6-(8-ethyl-3,8-diazabicyclo[3.2.1]octan-3-yl)pyridin-3-yl)ethynyl)benzyl)-16,16,16-trifluoro-9-hydroxy-15,15-dimethyl-3,6,13-trioxo-5-(1,1,1-trifluoro-2-methylpropan-2-yl)-2-oxa-4,7,11,12-tetraazahexadecan-14-yl)carbamate] | 8.30 | <0.11 |  | 
8 | COC(=O)N[C@H](C(=O)NN(Cc1c(F)cc(-c2ccccn2)cc1F)C[C@H](O)[C@H](Cc1ccc(C#Cc2ccc(N3CC4CCC(C3)N4C3COC3)nc2)cc1)NC(=O)[C@@H](NC(=O)OC)C(C)(C)C(F)(F)F)C(C)(C)C [Example 53, Methyl ((5S,8S,9S,14S)-11-(2,6-difluoro-4-(pyridin-2-yl)benzyl)-9-hydroxy-15,15-dimethyl-8-(4-((6-(8-(oxetan-3-yl)-3,8-diazabicyclo[3.2.1]octan-3-yl)pyridin-3-yl)ethynyl)benzyl)-3,6,13-trioxo-5-(1,1,1-trifluoro-2-methylpropan-2-yl)-2-oxa-4,7,11,12-tetraazahexadecan-14-yl)carbamate] | 8.53 | 0.51 | 0.2 | 
9 | COC(=O)N[C@H](C(=O)N[C@@H](Cc1ccc(C#Cc2ccc(N3CC4CCC(C3)N4C3COC3)nc2)cc1)[C@@H](O)CN(Cc1c(F)cc(-c2ccc(C)cn2)cc1F)NC(=O)[C@@H](NC(=O)OC)C(C)(C)C(F)(F)F)C(C)(C)C(F)(F)F [Example 229, Methyl ((5S,8S,9S,14S)-11-(2,6-difluoro-4-(5-methylpyridin-2-yl)benzyl)-16,16,16-trifluoro-9-hydroxy-15,15-dimethyl-8-(4-((6-(8-(oxetan-3-yl)-3,8-diazabicyclo [3.2.1]octan-3-yl)pyridin-3-yl)ethynyl)benzyl)-3,6,13-trioxo-5-(1,1,1-trifluoro-2-methylpropan-2-yl)-2-oxa-4,7,11,12-tetraazahexadecan-14-yl)carbamate] | 8.10 | <0.11 | 0.26 | 
